Like-named read-outs stand apart in the source and are kept apart here.
How the values were obtained:
Format in all cases: cell-based
[1] = molecular target: TRPML1 (Homo sapiens, UniProt Q9GZU1); experiment: Fluorescent TRPML1 assay (Fluo4-AM calcium fluorescence in doxycycline-induced HEK-293 Trex cells)
Outline: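 hTRPML1 (mutated for cell-surface expression) in HEK-293 Trex, dox 0.5 ug/mL o/n; Fluo4-AM 1 uM ~60 min, then ~60 min de-esterification, dark; modified Ringer's + 10 mM Ca. Cmpds 20 uM–6 nM final, half-log, n=3. Ex480/Em540; % activity vs ctrls; EC50 by nonlinear regression.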

[2] = molecular target: T1, TRPML2 (Homo sapiens, UniProt Q8IZK6); experiment: Fluorescent TRPML2 assay (performed as for TRPML1, substituting the TRPML2 subtype)
T1 construct: expressed in transfected cells
T1 sequence (Q8IZK6 1-566): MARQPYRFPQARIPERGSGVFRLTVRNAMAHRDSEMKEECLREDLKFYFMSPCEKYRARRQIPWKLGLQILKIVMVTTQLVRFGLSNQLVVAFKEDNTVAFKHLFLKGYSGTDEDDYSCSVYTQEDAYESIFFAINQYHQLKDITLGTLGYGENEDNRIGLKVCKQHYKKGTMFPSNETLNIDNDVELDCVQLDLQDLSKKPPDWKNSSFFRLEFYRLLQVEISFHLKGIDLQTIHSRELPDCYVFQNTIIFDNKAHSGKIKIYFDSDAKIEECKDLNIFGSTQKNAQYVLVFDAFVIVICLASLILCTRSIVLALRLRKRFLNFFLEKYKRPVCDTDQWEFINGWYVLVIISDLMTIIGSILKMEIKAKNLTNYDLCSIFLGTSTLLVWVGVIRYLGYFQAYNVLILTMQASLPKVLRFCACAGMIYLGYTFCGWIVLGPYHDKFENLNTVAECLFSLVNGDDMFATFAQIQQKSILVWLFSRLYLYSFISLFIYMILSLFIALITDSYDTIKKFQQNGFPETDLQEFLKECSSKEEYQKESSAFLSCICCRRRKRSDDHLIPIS
Outline: (§1)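 HEK-293 Trex, dox-induced (0.5 ug/mL), mutated for surface expression. Fluo4-AM 1 micromolar load ~60 min, dark; buffer modified Ringer's, 10 mM Ca. Cpds 20 micromolar–6 nanomolar final, half-log, n=3. Read ex 480/em 540; % activity vs controls; EC50 nonlinear fit.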

[3] = molecular target: T2, TRPML3 (Homo sapiens, UniProt Q8TDD5); experiment: Fluorescent TRPML3 assay (performed as for TRPML1, substituting the TRPML3 subtype)
T2 construct: expressed in transfected cells
T2 sequence (Q8TDD5 1-553): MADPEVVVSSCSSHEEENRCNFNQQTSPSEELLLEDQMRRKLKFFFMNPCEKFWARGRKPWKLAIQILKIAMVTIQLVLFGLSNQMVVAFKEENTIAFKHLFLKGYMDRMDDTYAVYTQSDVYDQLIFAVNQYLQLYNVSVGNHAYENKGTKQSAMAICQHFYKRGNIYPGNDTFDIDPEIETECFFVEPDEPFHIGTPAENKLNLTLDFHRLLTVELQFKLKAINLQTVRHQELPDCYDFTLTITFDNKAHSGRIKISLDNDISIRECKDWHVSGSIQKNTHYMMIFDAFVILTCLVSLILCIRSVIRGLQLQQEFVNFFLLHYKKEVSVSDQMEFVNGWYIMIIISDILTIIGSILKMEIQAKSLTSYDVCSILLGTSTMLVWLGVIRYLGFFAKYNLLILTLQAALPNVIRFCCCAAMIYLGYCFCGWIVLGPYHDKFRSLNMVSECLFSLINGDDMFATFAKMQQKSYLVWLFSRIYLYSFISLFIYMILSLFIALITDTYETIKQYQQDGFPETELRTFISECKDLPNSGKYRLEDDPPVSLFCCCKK
Outline: as §1

Chain of TRPML1 (Q9GZU1 whole entry L15A/L16A/L577A/L578A, form open): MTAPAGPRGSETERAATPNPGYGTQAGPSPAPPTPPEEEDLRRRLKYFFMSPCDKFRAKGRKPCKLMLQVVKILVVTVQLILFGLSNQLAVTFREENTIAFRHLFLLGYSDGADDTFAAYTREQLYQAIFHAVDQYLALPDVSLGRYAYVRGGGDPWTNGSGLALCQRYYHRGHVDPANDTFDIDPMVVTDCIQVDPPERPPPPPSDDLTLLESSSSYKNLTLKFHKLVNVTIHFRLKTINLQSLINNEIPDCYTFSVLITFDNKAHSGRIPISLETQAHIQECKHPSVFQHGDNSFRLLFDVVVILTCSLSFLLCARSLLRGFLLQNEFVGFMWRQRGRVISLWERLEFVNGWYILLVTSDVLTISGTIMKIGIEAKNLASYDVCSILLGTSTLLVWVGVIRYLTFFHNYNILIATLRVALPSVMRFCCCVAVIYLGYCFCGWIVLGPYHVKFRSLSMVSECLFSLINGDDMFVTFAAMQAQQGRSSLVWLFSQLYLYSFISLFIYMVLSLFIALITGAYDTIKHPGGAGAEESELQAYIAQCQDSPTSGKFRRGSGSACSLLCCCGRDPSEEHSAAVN

Row | SMILES | EC50 ([1]; fluorescent calcium assay) [nM] | EC50 ([2]; fluorescent calcium assay) [nM] | EC50 ([3]; fluorescent calcium assay) [nM] | EC50 [1] [nM] | EC50 [2] [nM] | EC50 [3] [nM]
1 | C[C@H]1CN(C(=O)OC(C)(C)C)CCN1c1ncnc2c1c(C1CC1)cn2-c1ccc(C#N)n1C [Compound 456, tert-butyl (S)-4-(7-(5-cyano-1-methyl-1H-pyrrol-2-yl)-5-cyclopropyl-7H-pyrrolo[2,3-d]pyrimidin-4-yl)-3-methylpiperazine-1-carboxylate] | 500 to 2000 | 500 to 2000 | 100 to 500 |  |  | 
2 | CCN(CC)c1cn(-c2cc(C#N)ccn2)c2ncnc(N3CCN(C(=O)OC(C)(C)C)[C@H](C)C3)c12 [Compound 425, tert-butyl (R)-4-(7-(4-cyanopyridin-2-yl)-5-(diethylamino)-7H-pyrrolo[2,3-d]pyrimidin-4-yl)-2-methylpiperazine-1-carboxylate] | < 100 | 100 to 500 | < 100 |  |  | 
3 | C[C@@H]1CN(c2nccc3c2c(C2CC2)cn3-c2cc(F)cc(F)c2)CCN1C(=O)OC(C)(C)C [Compound 418, tert-butyl (R)-4-(3-cyclopropyl-1-(3,5-difluorophenyl)-1H-pyrrolo[3,2-c]pyridin-4-yl)-2-methylpiperazine-1-carboxylate] | < 100 | 100 to 500 | < 100 |  |  | 
4 | Cc1ccc(Cl)cc1-n1cc(-c2ccccn2)c2c(N3CCN(C(=O)OC(C)(C)C)CC3C)ncnc21 (stereo not drawn) [Compound 159, tert-butyl 4-(7-(5-chloro-2-methylphenyl)-5-(pyridin-2-yl)-7H-pyrrolo[2,3-d]pyrimidin-4-yl)-3-methylpiperazine-1-carboxylate] | 100 to 500 | 100 to 500 | 100 to 500 |  |  | 
5 | C[C@H]1CN(C(=O)OC(C)(C)C)CCN1c1ncnc2c1c(-c1cncnc1)cn2-c1cccc(C#N)c1 [Compound 328, tert-butyl (S)-4-(7-(3-cyanophenyl)-5-(pyrimidin-5-yl)-7H-pyrrolo[2,3-d]pyrimidin-4-yl)-3-methylpiperazine-1-carboxylate] | 500 to 2000 | > 2000 | 100 to 500 |  |  | 
6 | C[C@H]1CN(C(=O)OC(C)(C)C)CCN1c1ncnc2c1c(N(C)C)cn2-c1cccc(Cl)c1 [Compound 415] | < 100 | 100 to 500 | < 100 |  |  | 
7 | [2H]C([2H])([2H])C(OC(=O)N1C[C@H](C)N(c2nccc3c2c(C(F)(F)F)cn3-c2cc(C#N)ccn2)C[C@H]1C)(C([2H])([2H])[2H])C([2H])([2H])[2H] [Compound 623, 2-(methyl-d3)propan-2-yl-1,1,1,3,3,3-d6 (2R,5S)-4-(1-(4-cyanopyridin-2-yl)-3-(trifluoromethyl)-1H-pyrrolo[3,2-c]pyridin-4-yl)-2,5-dimethylpiperazine-1-carboxylate] |  |  |  | < 100 | 500 to 2000 | < 100
8 | C[C@H]1CN(C(=O)OC(C)(C)C)CCN1c1ncnc2c1c(C1CC1)cn2-c1cccc(OC(F)F)c1 [Compound 198, tert-butyl (S)-4-(5-cyclopropyl-7-(3-(difluoromethoxy)phenyl)-7H-pyrrolo[2,3-d]pyrimidin-4-yl)-3-methylpiperazine-1-carboxylate] | < 100 | 100 to 500 | < 100 |  |  | 
9 | [2H]C([2H])([2H])C(OC(=O)N1C[C@H](C)N(c2ncnc3c2c(C(F)F)cn3-c2cc(C#N)ccn2)C[C@H]1C)(C([2H])([2H])[2H])C([2H])([2H])[2H] [Compound 538, 2-(methyl-d3)propan-2-yl-1,1,1,3,3,3-d6 (2R,5S)-4-(7-(4-cyanopyridin-2-yl)-5-(difluoromethyl)-7H-pyrrolo[2,3-d]pyrimidin-4-yl)-2,5-dimethylpiperazine-1-carboxylate] |  |  |  | < 100 | 100 to 500 | < 100
10 | C[C@@H]1CN(C(=O)OC(C)(C)C)CCN1c1ncnc2c1c(N1CCCC1)cn2-c1cccc(Cl)c1 [Compound 209, tert-Butyl (R)-4-(7-(3-chlorophenyl)-5-(pyrrolidin-1-yl)-7H-pyrrolo[2,3-d]pyrimidin-4-yl)-3-methylpiperazine-1-carboxylate] | < 100 | 100 to 500 | < 100 |  |  | 
11 | C[C@@H]1CN(c2ncnc3c2c(C(F)F)cn3-c2cccc(F)c2)[C@@H](C)CN1C(=O)OC(C)(C)C [Compound 695, tert-butyl (2R,5S)-4-(5-(difluoromethyl)-7-(3-fluorophenyl)-7H-pyrrolo[2,3-d]pyrimidin-4-yl)-2,5-dimethylpiperazine-1-carboxylate] |  |  |  | < 100 | 100 to 500 | < 100
12 | C[C@@H]1CN(c2ncnc3c2c(OC(F)F)cn3-c2cc(C#N)ccn2)[C@@H](C)CN1C(=O)OC(C)(C)C [Compound 523, tert-butyl (2R,5S)-4-(7-(4-cyanopyridin-2-yl)-5-(difluoromethoxy)-7H-pyrrolo[2,3-d]pyrimidin-4-yl)-2,5-dimethylpiperazine-1-carboxylate] |  |  |  | < 100 | < 100 | < 100
13 | C[C@H]1CN(C(=O)OC(C)(C)C)CCN1c1ncnc2c1c(C1CC1)cn2-c1cc(C#N)ccn1 [Compound 260] | < 100 | < 100 | < 100 |  |  | 
14 | COc1cccc(-n2cc(C3CC3)c3c(N4CCN(C(=O)OC(C)(C)C)C[C@@H]4C)ncnc32)c1 [Compound 202, tert-butyl (S)-4-(5-cyclopropyl-7-(3-methoxyphenyl)-7H-pyrrolo[2,3-d]pyrimidin-4-yl)-3-methylpiperazine-1-carboxylate] | 100 to 500 | 500 to 2000 | 100 to 500 |  |  | 

The remaining lines, values ahead:

Row | EC50 ([1]; fluorescent calcium assay) [nM] | EC50 ([2]; fluorescent calcium assay) [nM] | EC50 ([3]; fluorescent calcium assay) [nM] | EC50 [1] [nM] | EC50 [2] [nM] | EC50 [3] [nM] | SMILES
15 | 100 to 500 | 100 to 500 | < 100 |  |  |  | CC(C)(C)OC(=O)N1CCN(c2ncnc3c2c(C2CC2)cn3-c2cc(F)cc(F)c2)CC1 [Compound 146, tert-butyl 4-(5-cyclopropyl-7-(3,5-difluorophenyl)-7H-pyrrolo[2,3-d]pyrimidin-4-yl)piperazine-1-carboxylate]
16 | 500 to 2000 | > 2000 | 500 to 2000 |  |  |  | CC(C)(CF)OC(=O)N1CCN(c2ncnc3c2c(-c2ccccc2F)cn3-c2cncnc2)CC1 [Compound 173, 1-fluoro-2-methylpropan-2-yl 4-(5-(2-fluorophenyl)-7-(pyrimidin-5-yl)-7H-pyrrolo[2,3-d]pyrimidin-4-yl)piperazine-1-carboxylate]
17 | 500 to 2000 | > 2000 | 100 to 500 |  |  |  | C[C@H]1CN(C(=O)OC(C)(C)C(F)(F)F)CCN1c1ncnc2c1c(-c1cnn(C)c1)cn2-c1cccc(C#N)c1 [Compound 329, 1,1,1-trifluoro-2-methylpropan-2-yl (S)-4-(7-(3-cyanophenyl)-5-(1-methyl-1H-pyrazol-4-yl)-7H-pyrrolo[2,3-d]pyrimidin-4-yl)-3-methylpiperazine-1-carboxylate]
18 |  |  |  | < 100 | < 100 | < 100 | [2H]C([2H])([2H])[C@@H]1CN(c2ncnc3c2c(C(F)(F)F)cn3-c2cc(C#N)ccn2)[C@@H](C)CN1C(=O)OC(C)(C)C [Compound 707, tert-butyl (2R,5S)-4-(7-(4-cyanopyridin-2-yl)-5-(trifluoromethyl)-7H-pyrrolo[2,3-d]pyrimidin-4-yl)-5-methyl-2-(methyl-d3)piperazine-1-carboxylate]
19 |  |  |  | < 100 | 100 to 500 | < 100 | CC(C)(C)OC(=O)N1CCN(c2ncnc3c2c(N2CCCC2)cn3-c2cc(C#N)ccn2)C(C)(C)C1 [Compound 601, tert-butyl 4-(7-(4-cyanopyridin-2-yl)-5-(pyrrolidin-1-yl)-7H-pyrrolo[2,3-d]pyrimidin-4-yl)-3,3-dimethylpiperazine-1-carboxylate]
20 | < 100 | 100 to 500 | < 100 |  |  |  | C[C@H]1CN(C(=O)OC(C)(C)C)CCN1c1ncnc2c1c(N1CCCC1)cn2-c1cc(C#N)ccn1 [Compound 370, tert-butyl (S)-4-(7-(4-cyanopyridin-2-yl)-5-(pyrrolidin-1-yl)-7H-pyrrolo[2,3-d]pyrimidin-4-yl)-3-methylpiperazine-1-carboxylate]

From patent publication US20250136606A1, “MODULATORS OF TRPML, THEIR COMPOSITIONS AND METHODS OF USE” (Caraway Therapeutics, Inc., priority 2021, published 2025)
